SMILES strings stand for the structures.

These results are taken from patent publication US8518945B2, “Pyrrolopyrazine kinase inhibitors” (Hoffmann-La Roche Inc., priority 2010, dated 2013).

This assay has as its target T1, h-jak3(810-1124) (JAK3: Recombinant human kinase domain) (Homo sapiens, UniProt P52333).
T1 construct: jak3(810- 1124)-sf9-c; made in house; host or cells: Sf9
The assay can be described thus: Determination of IC50 of Janus Kinase (JAK) inhibition: JAK3 radioactive end-point 33P-ATP kinase assay. Format: biochemical. Particulars: no additive; ATP 1.5 uM, peptide 50 uM, 20 minutes, room temperature; read-out: Ic50 h-jak3(810-1124)-sf9-c: no additive.

T1 sequence (P52333 810-1124): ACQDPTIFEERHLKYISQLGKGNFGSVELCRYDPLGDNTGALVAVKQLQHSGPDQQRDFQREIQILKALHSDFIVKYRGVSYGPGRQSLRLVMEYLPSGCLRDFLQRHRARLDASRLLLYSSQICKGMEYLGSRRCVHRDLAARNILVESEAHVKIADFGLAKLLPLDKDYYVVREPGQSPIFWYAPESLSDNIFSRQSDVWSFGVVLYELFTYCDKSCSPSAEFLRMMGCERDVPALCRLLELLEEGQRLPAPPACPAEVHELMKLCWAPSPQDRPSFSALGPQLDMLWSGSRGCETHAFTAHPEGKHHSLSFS

Usually IC50 stands for the point on the concentration scale where inhibition reaches its midpoint. For the compound `Cn1cc(-c2cnc3[nH]cc(C(=O)N[C@@H](C(=O)N4CCS(=O)(=O)CC4)C4CC4)c3n2)cn1` [Example I-89, 2-(1-Methyl-1H-pyrazol-4-yl)-5H-pyrrolo[2,3-b]pyrazine-7-carboxylic acid [(R)-1-cyclopropyl-2-(1,1-dioxo-1λ^6-thiomorpholin-4-yl)-2-oxo-ethyl]-amide], the IC50 came out at 4.23 nM.

Consider `COc1ccnc2cc(-c3cnc4[nH]cc(C(=O)N[C@H](C)C(=O)N5CC(C#N)C5)c4n3)sc12` [Example I-103, 2-(7-Methoxy-thieno[3,2-b]pyridin-2-yl)-5H-pyrrolo[2,3-b]pyrazine-7-carboxylic acid [(R)-2-(3-cyano-azetidin-1-yl)-1-methyl-2-oxo-ethyl]-amide], for which the 50% inhibitory concentration (IC50) is 8.34 nM. Consider `Cn1cc(-c2cnc3[nH]cc(C(=O)N[C@@H](C(=O)N4CC(C)(C#N)C4)C(C)(C)C)c3n2)cn1` [Example I-143, 2-(1-Methyl-1H-pyrazol-4-yl)-5H-pyrrolo[2,3-b]pyrazine-7-carboxylic acid [(R)-1-(3-cyano-3-methyl-azetidine-1-carbonyl)-2,2-dimethyl-propyl]-amide], for which the concentration for half-maximal inhibition (IC50) was found to be 0.42 nM. The value for `CC(C)(C)[C@@H](NC(=O)c1c[nH]c2ncc(C3CC3)nc12)C(=O)N1CCc2ncccc2C1` [Example I-135, 2-Cyclopropyl-5H-pyrrolo[2,3-b]pyrazine-7-carboxylic acid [(R)-1-(7,8-dihydro-5H-[1,6]naphthyridine-6-carbonyl)-2,2-dimethyl-propyl]-amide] was 6.11 nM; that for `CC(C)(C)[C@@H](NC(=O)c1c[nH]c2ncc(-c3cnn(-c4ccc(F)cc4)c3)nc12)C(=O)N1CCC(C#N)CC1` [Example I-117, 2-[1-(4-Fluoro-phenyl)-1H-pyrazol-4-yl]-5H-pyrrolo[2,3-b]pyrazine-7-carboxylic acid [(R)-1-(4-cyano-piperidine-1-carbonyl)-2,2-dimethyl-propyl]-amide] was 1.01 nM; that for `CC(C)C[C@@H](NC(=O)c1c[nH]c2ncc(-c3cnn(C)c3)nc12)C(=O)N1CC(C#N)C1` [Example I-69, 2-(1-Methyl-1H-pyrazol-4-yl)-5H-pyrrolo[2,3-b]pyrazine-7-carboxylic acid [(R)-1-(3-cyano-azetidine-1-carbonyl)-3-methyl-butyl]-amide] was at most 0.32 nM. The value for `CC(C)(C)[C@@H](NC(=O)c1c[nH]c2ncc(-c3cc(OC4CCCC4)ccn3)nc12)C(=O)N1CCC(C#N)CC1` [Example I-130, 2-(4-Cyclopentyloxy-pyridin-2-yl)-5H-pyrrolo[2,3-b]pyrazine-7-carboxylic acid [(R)-1-(4-cyano-piperidine-1-carbonyl)-2,2-dimethyl-propyl]-amide] was 113 nM. The value for `CCn1cc(-c2cnc3[nH]cc(C(=O)N[C@@H](C(=O)N4CCC(F)(C5=NCCN5)C4)C(C)(C)C)c3n2)cn1` (stereo partly drawn) [Example I-38, 2-(1-Ethyl-1H-pyrazol-4-yl)-5H-pyrrolo[2,3-b]pyrazine-7-carboxylic acid {(R)-1-[3-(4,5-dihydro-1H-imidazol-2-yl)-3-fluoro-pyrrolidine-1-carbonyl]-2,2-dimethyl-propyl}-amide] was 2.79 nM; that for `N#CC1CN(C(=O)[C@@H](NC(=O)c2c[nH]c3ncc(C4CC4)nc23)C2CCOCC2)C1` [Example I-137, 2-Cyclopropyl-5H-pyrrolo[2,3-b]pyrazine-7-carboxylic acid [(S)-2-(3-cyano-azetidin-1-yl)-2-oxo-1-(tetrahydro-pyran-4-yl)-ethyl]-amide] was 539 nM.

On to `N#CC1CN(C(=O)[C@H](NC(=O)c2c[nH]c3ncc(-c4cn(-c5cc(F)ccc5F)cn4)nc23)C2CC2)C1` [Example I-132, 2-[1-(2,5-Difluoro-phenyl)-1H-imidazol-4-yl]-5H-pyrrolo[2,3-b]pyrazine-7-carboxylic acid [(R)-2-(3-cyano-azetidin-1-yl)-1-cyclopropyl-2-oxo-ethyl]-amide], for which the IC50 came to 0.49 nM.
